Tested on: mice exposed to thoracic radiation
Assay: Thoracic radiation exposure in mice, non-invasive pulse oximetry (MouseOx)
Type: in vivo
Conditions: male C57/LJ mice, single fraction thoracic radiation, LGM2605 post exposure daily for 3 weeks or daily for 3 months, measured 130-140 days post radiation
Description: FIG. 1. Arterial Oxygen saturation (A) and Pulse Distention (B) were measured in living mice (n=5), between 130 and 140 days post single fraction thoracic radiation exposure.
Mice (male, C57/LJ) were exposed to thoracic radiation and evaluated for multiple cardio-pulmonary measurements such as arterial oxygen saturation and pulse distention using non-invasive Pulse Oximetry (MouseOx non-invasive vital signs monitor STARR Life Sciences Corp., Oakmont, Pa.).
Pulse Distention is the amplitude of the cardiac light absorption signals. Pulse Distention is a hemodynamic measurement obtained by the pulse oximetry software, a measure of the local blood flow (carotid arteries) at the sensor location. […] This could indicate that LGM2605 helps reduce downstream effects of inflammation in tissues other than the lung.

COc1cc(C[C@@H](CO[C@@H]2O[C@H](CO)[C@@H](O)[C@H](O)[C@H]2O)[C@H](CO[C@@H]2O[C@H](CO)[C@@H](O)[C@H](O)[C@H]2O)Cc2ccc(O)c(OC)c2)ccc1O [LGM2605, secoisolariciresinol diglucoside]
Pulse distention (decreased significantly in irradiated controls (FIG. 1B)): remained at baseline levels | Arterial blood oxygenation (arterial oxygen saturation) (vs irradiated controls and vehicle (FIG. 1A)): improved arterial blood oxygenation
